Holding throughout (format): functional
The test system of test [1] is Escherichia coli. Kind of test: Antibacterial activity against Escherichia coli expressing TolC after overnight incubation by microbroth dilution method. (In general: Dilution methods test growth across graded concentrations, often in twofold steps.)
Another test deals with Enterococcus faecalis. Kind of test: Antibacterial activity against Enterococcus faecalis after overnight incubation by microbroth dilution method.
The subject of the next test is Bacillus anthracis. Briefly: Antibacterial activity against Bacillus anthracis after overnight incubation by microbroth dilution method.
In a further test the test system is Acinetobacter. Kind of test: Antibacterial activity against Acinetobacter after overnight incubation by microbroth dilution method.
The test system of test [2] is Staphylococcus aureus. Briefly: Antibacterial activity against methicillin-susceptible Staphylococcus aureus after overnight incubation by microbroth dilution method.
The test system of test [3] is Escherichia coli. Kind of test: Antibacterial activity against Escherichia coli K-12 after overnight incubation by microbroth dilution method.
Test [4] has as its system Staphylococcus aureus. Briefly: Antibacterial activity against methicillin-resistant Staphylococcus aureus after overnight incubation by microbroth dilution method.
Test [5] has as its system Mycobacterium tuberculosis. Briefly: Antitubercular activity against Mycobacterium tuberculosis H37Rv after 7 days by microbroth dilution method. The conditions noted are these: 168 h.

These results are taken from ChEMBL document CHEMBL1921781, “Antibacterial and antitubercular activity of fosmidomycin, FR900098, and their lipophilic analogs” (2011).

The structures appear in SMILES notation. Converted amounts (≈) assume the structure as drawn. Where only a bound is given, the exact number is not on record here.

For `CC(=O)N(O)CCCP(=O)(OCOC(=O)C(C)(C)C)OCOC(=O)C(C)(C)C`, the MIC is 100 µg/mL (≈ 235 µM) against Escherichia coli [1]; over 200 µg/mL in the test on Enterococcus faecalis; 200 µg/mL (≈ 470 µM) against Bacillus anthracis; over 200 µg/mL with Acinetobacter; 100 µg/mL (≈ 235 µM) against Staphylococcus aureus [2]; over 200 µg/mL in the test with Escherichia coli [3]. Also, the MIC (in the test with Staphylococcus aureus [4]; in test [5]) was 50 µg/mL (≈ 118 µM) throughout.
Consider `O=CN(O)CCCP(=O)(O)O` [FOSMIDOMYCIN], for which the MIC is 6.25 µg/mL (≈ 34.1 µM) in the test with Escherichia coli [1]; over 200 µg/mL against Enterococcus faecalis; 0.78 µg/mL (≈ 4.26 µM) in the test with Bacillus anthracis; 100 µg/mL (≈ 546 µM) in the test on Acinetobacter; over 200 µg/mL in the test on Staphylococcus aureus [2]; 12.5 µg/mL (≈ 68.3 µM) against Escherichia coli [3]. Also, the minimum inhibitory concentration (MIC) in the test on Staphylococcus aureus [4] is 200 µg/mL (≈ 1090 µM); in test [5], over 500 µg/mL.
As to `CC(=O)N(O)CCCP(=O)(OCC(=O)OC(C)(C)C)OCC(=O)OC(C)(C)C`, the MIC with Escherichia coli [1] was over 200 µg/mL; in the test with Enterococcus faecalis, over 200 µg/mL; against Bacillus anthracis, over 200 µg/mL; against Acinetobacter, over 200 µg/mL; in the test with Staphylococcus aureus [2] it was 100 µg/mL (≈ 235 µM); against Escherichia coli [3] it was over 200 µg/mL. For the same molecule, the values for the MIC (in the test with Staphylococcus aureus [4]; in test [5]) were 25 µg/mL (≈ 58.8 µM) and 400 µg/mL (≈ 940 µM), respectively.
`CCOC(=O)OC(C)OP(=O)(CCCN(O)C(C)=O)OC(C)OC(=O)OCC` (stereo not drawn): the MIC in the test with Escherichia coli [1] is 200 µg/mL (≈ 466 µM); with Enterococcus faecalis, over 200 µg/mL; in the test on Bacillus anthracis, over 200 µg/mL; in the test on Acinetobacter, over 200 µg/mL; against Staphylococcus aureus [2], over 200 µg/mL; in the test with Escherichia coli [3] it was over 200 µg/mL. The MIC against Staphylococcus aureus [4] is over 200 µg/mL; in test [5] it was 400 µg/mL (≈ 932 µM).
Take `CCOP(=O)(CCCN(O)C(C)=O)OCC`: the MIC against Escherichia coli [1] was over 200 µg/mL; in the test on Enterococcus faecalis it was over 200 µg/mL; with Bacillus anthracis, 200 µg/mL (≈ 790 µM); against Acinetobacter, over 200 µg/mL; in the test on Staphylococcus aureus [2], over 200 µg/mL; in the test on Escherichia coli [3], over 200 µg/mL. The MIC (in the test on Staphylococcus aureus [4]; in test [5]) was 200 µg/mL (≈ 790 µM) each time.
`CCCCCCOP(=O)(CCCN(O)C(C)=O)OCCCCCC` yielded an MIC in test [5] of 100 µg/mL (≈ 274 µM).
For the molecule `CC(=O)N(O)CCCP(=O)(OC(C)C)OC(C)C`, the MIC in the test with Escherichia coli [1], against Enterococcus faecalis, with Bacillus anthracis, against Acinetobacter, against Staphylococcus aureus [2] and in the test on Escherichia coli [3] was over 200 µg/mL each time. Further, the values for the MIC (in the test on Staphylococcus aureus [4]; in test [5]) were over 200 µg/mL and 400 µg/mL (≈ 1420 µM), respectively.
With `CC(=O)N(O)CCCP(=O)(OC(C)OC(=O)c1ccccc1)OC(C)OC(=O)c1ccccc1` (stereo not drawn), the MIC with Escherichia coli [1] is 50 µg/mL (≈ 101 µM); in the test with Enterococcus faecalis, over 200 µg/mL; against Bacillus anthracis, 50 µg/mL (≈ 101 µM); in the test with Acinetobacter, 100 µg/mL (≈ 203 µM); against Staphylococcus aureus [2], over 200 µg/mL; against Escherichia coli [3], 50 µg/mL (≈ 101 µM). Besides, 100 µg/mL (≈ 203 µM) was the least that counted as inhibitory in test [5] (MIC).
With `CCOP(=O)(CCCN(O)C=O)OCC`, the MIC in the test on Escherichia coli [1], with Enterococcus faecalis, in the test with Bacillus anthracis, in the test with Acinetobacter, against Staphylococcus aureus [2] and in the test with Escherichia coli [3] was over 200 µg/mL throughout. Also, the MIC in the test with Staphylococcus aureus [4] is over 200 µg/mL; in test [5], 400 µg/mL (≈ 1670 µM).
As to `CC(=O)N(O)CCCP(=O)([O-])O.[Na+]`, the MIC against Escherichia coli [1] is 12.5 µg/mL; against Enterococcus faecalis, over 200 µg/mL; in the test with Bacillus anthracis, 50 µg/mL; in the test with Acinetobacter, 50 µg/mL; in the test on Staphylococcus aureus [2], over 200 µg/mL; against Escherichia coli [3], 200 µg/mL. In addition, the MIC in the test on Staphylococcus aureus [4] is 50 µg/mL; in test [5] it was over 500 µg/mL.
On to `CC(=O)N(O)CCCP(=O)(OC(C)OC(=O)OC(C)(C)C)OC(C)OC(=O)OC(C)(C)C` (stereo not drawn), for which the MIC against Escherichia coli [1] is over 200 µg/mL; with Enterococcus faecalis, over 200 µg/mL; against Bacillus anthracis it was 200 µg/mL (≈ 412 µM); in the test with Acinetobacter, over 200 µg/mL; in the test on Staphylococcus aureus [2], 100 µg/mL (≈ 206 µM); against Escherichia coli [3], over 200 µg/mL. Further, the MIC with Staphylococcus aureus [4] is 50 µg/mL (≈ 103 µM); in test [5], 400 µg/mL (≈ 824 µM).
On to `CC(=O)N(O)CCCP(=O)(OCOC(=O)c1ccccc1)OCOC(=O)c1ccccc1`, for which the minimum inhibitory concentration (MIC) in the test on Escherichia coli [1] was 50 µg/mL (≈ 107 µM); in the test on Enterococcus faecalis it was over 200 µg/mL; in the test with Bacillus anthracis, 100 µg/mL (≈ 215 µM); in the test with Acinetobacter, 200 µg/mL (≈ 430 µM); against Staphylococcus aureus [2], over 200 µg/mL; with Escherichia coli [3] it was over 200 µg/mL. The figures for the MIC (against Staphylococcus aureus [4]; in test [5]) were over 200 µg/mL and 25 µg/mL (≈ 53.7 µM), respectively.

The term MIC denotes the lowest concentration found to suppress growth. A lower MIC goes with inhibition by little substance.
